Measured values from US8129398B2 (priority 2008, dated 2012).

These compounds were tested against T1, HIV-integrase (Human immunodeficiency virus type 1 group M subtype B, UniProt P12497) (assay: HIV-Integrase Inhibition Activity (SPA bead integration assay with P33 labeled target DNA)). Conditions: recombinant integrase, class symbols; read-out: in vitro activity.
T1 construct: Recombinant integrase (0.26 ng) was incubated with the beads
Format: biochemical
Procedure, shortened: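 Strand integration read as bead-proximity CPM after P33 target DNA (0.1 fmol) and inhibitor were added to washed integrase–substrate DNA complexes on SPA beads. Enzyme bound 90 min at 37° C; EDTA (10 mM final) terminated reaction; IC50 graded A/B/C.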
With `CN(C)C(=O)C(=O)NC12CCC(CC1)Cn1c2nc(C(=O)NCc2ccc(F)cc2CO)c(O)c1=O` [Example 122, N′-(2-((4-Fluoro-2-(hydroxymethyl)benzyl)carbamoyl)-3-hydroxy-4-oxo-6,7,8,9-tetrahydro-7,10-ethanopyrimido[1,2-a]azepin-10(4H)-yl)-N,N-dimethylethanediamide] the IC50 was < 10 nM.
For `CN(C(=O)C(=O)N1CC[C@@H](F)C1)C12CCC(CC1)Cn1c2nc(C(=O)NCc2ccc(F)cc2)c(O)c1=O` [Example 163, N-(4-Fluorobenzyl)-10-((((3R)-3-fluoro-1-pyrrolidinyl)(oxo)acetyl)(methyl)amino)-3-hydroxy-4-oxo-4,6,7,8,9,10-hexahydro-7,10-ethanopyrimido[1,2-a]azepine-2-carboxamide], the IC50 was < 10 nM.
`CN(C)C(=O)C(=O)NC12CCC(CC1)Cn1c2nc(C(=O)NCc2ccccc2)c(O)c1=O` [Example 129, N′-(2-(Benzylcarbamoyl)-3-hydroxy-4-oxo-6,7,8,9-tetrahydro-7,10-ethanopyrimido[1,2-a]azepin-10(4H)-yl)-N,N-dimethylethanediamide] was tested, and the IC50 was < 10 nM.
`CC1(C)[C@@H]2CC[C@@]1(C)[C@@H](NC(=O)OCc1ccccc1)c1nc(C(=O)NCc3ccc(F)cc3)c(O)c(=O)n1C2` [Example 181, Benzyl((7S,10R,11R)-2-((4-fluorobenzyl)carbamoyl)-3-hydroxy-10,12,12-trimethyl-4-oxo-6,7,8,9,10,11-hexahydro-4H-7,10-methanopyrimido[1,2-a]azocin-11-yl)carbamate] gave an IC50 of 10 to 100 nM.
`CNC1c2nc(C(=O)NCc3ccc(F)cc3)c(O)c(=O)n2CC2CCC1C2` (stereo not shown) [Example 9, 7,10-Methano-4H-pyrimido[1,2-a]azocine-2-carboxamide, N-[(4-fluorophenyl)methyl]-6,7,8,9,10,11-hexahydro-3-hydroxy-11-(methylamino)-4-oxo-] was tested, and the IC50 was > 100 nM.
In the case of `O=C(NC12CCC(Cn3c1nc(C(=O)NCc1ccc(F)cc1)c(O)c3=O)C2)OCc1ccccc1` (stereo not shown) [Example 189, Carbamic acid, [2-[[[(4-fluorophenyl)methyl]amino]carbonyl]-6,7,8,9-tetrahydro-3-hydroxy-4-oxo-7,10-methanopyrimido[1,2-a]azepin-10(4H)-yl]-, phenylmethyl ester], the IC50 is reported as < 10 nM.
For `O=C(NC12CCC(CC1)Cn1c2nc(C(=O)NCc2ccc(F)cc2)c(O)c1=O)c1ccc2nccn2c1` [Example 239, 7,10-Ethanopyrimido[1,2-a]azepine-2-carboxamide, N-[(4-fluorophenyl)methyl]-4,6,7,8,9,10-hexahydro-3-hydroxy-10-[(imidazo[1,2-a]pyridin-6-ylcarbonyl)amino]-4-oxo-], the IC50 was < 10 nM.
For `O=C(NC12CCC(CC1)Cn1c2nc(C(=O)NCc2ccc(F)cc2)c(O)c1=O)c1ccnc(N2CCOCC2)c1` [Example 317, 7,10-Ethanopyrimido[1,2-a]azepine-2-carboxamide, N-[(4-fluorophenyl)methyl]-4,6,7,8,9,10-hexahydro-3-hydroxy-10-[[[2-(4-morpholinyl)-4-pyridinyl]carbonyl]amino]-4-oxo-], the IC50 was < 10 nM.
In the case of `CN(C)C(=O)C(=O)NC12CCC(CC1)Cn1c2nc(C(=O)NCc2ccccc2OC(F)(F)F)c(O)c1=O` [Example 386], the IC50 is reported as < 10 nM.
For `CN(C)C(=O)C(=O)NC12CCC(CC1)Cn1c2nc(C(=O)NCCCc2ccc(Cl)c(Cl)c2)c(O)c1=O` [Example 131, N′-(2-((3-(3,4-Dichlorophenyl)propyl)carbamoyl)-3-hydroxy-4-oxo-6,7,8,9-tetrahydro-7,10-ethanopyrimido[1,2-a]azepin-10(4H)-yl)-N,N-dimethylethanediamide], the IC50 was 10 to 100 nM.
In the case of `COC1CN(C(=O)C(=O)NC23CCC(CC2)Cn2c3nc(C(=O)NCc3ccc(F)cc3)c(O)c2=O)C1` [Example 66, N-(4-Fluorobenzyl)-3-hydroxy-10-(((3-methoxy-1-azetidinyl) (oxo)acetyl)amino)-4-oxo-4,6,7,8,9,10-hexahydro-7,10-ethanopyrimido[1,2-a]azepine-2-carboxamide], the IC50 is reported as < 10 nM.
In the case of `CN(C)C(=O)C(=O)NC12CCC(CC1)Cn1c2nc(C(=O)NCc2cc(Br)c(F)cc2Br)c(O)c1=O` [Example 56, N′-(2-((2,5-Dibromo-4-fluorobenzyl)carbamoyl)-3-hydroxy-4-oxo-6,7,8,9-tetrahydro-7,10-ethanopyrimido[1,2-a]azepin-10(4H)-yl)-N,N-dimethylethanediamide], the IC50 is reported as < 10 nM.
For `CN(C)C(=O)C(=O)NC12CCC(CC1)Cn1c2nc(C(=O)NCc2ccc(F)cc2Cl)c(O)c1=O` [Example 118, N′-(2-((2-Chloro-4-fluorobenzyl)carbamoyl)-3-hydroxy-4-oxo-6,7,8,9-tetrahydro-7,10-ethanopyrimido[1,2-a]azepin-10(4H)-yl)-N,N-dimethylethanediamide], the IC50 was < 10 nM.
`CN(C)C(=O)C(=O)NC12CCC(CC1)Cn1c2nc(C(=O)NCCCN2CCCC2=O)c(O)c1=O` [Example 337] was tested, and the IC50 was > 100 nM.
`CN(C)C(=O)C(=O)NC12CCC(CC1)Cn1c2nc(C(=O)NCCNc2ccccc2)c(O)c1=O` [Example 342] was tested, and the IC50 was 10 to 100 nM.
Work on `CN(C)C(=O)C(=O)NC12CCC(CC1)Cn1c2nc(C(=O)NCc2ccc(F)cc2-c2ncnn2C)c(O)c1=O` [Example 107, N′-(2-((4-Fluoro-2-(1-methyl-1H-1,2,4-triazol-5-yl)benzyl)carbamoyl)-3-hydroxy-4-oxo-6,7,8,9-tetrahydro-7,10-ethanopyrimido[1,2-a]azepin-10(4H)-yl)-N,N-dimethylethanediamide] yielded an IC50 of 10 to 100 nM.
With `CN(C)C(=O)C(=O)NC12CCC(Cn3c1nc(C(=O)NCc1ccc(F)cc1)c(O)c3=O)C2` (stereo not shown) [Example 188, Ethanediamide, N′-[2-[[[(4-fluorophenyl)methyl]amino]carbonyl]-6,7,8,9-tetrahydro-3-hydroxy-4-oxo-7,11-methanopyrimido[1,2-a]azepin-10(4H)-yl]-N,N-dimethyl-] the IC50 was < 10 nM.
`O=C(NC12CCC(CC1)Cn1c2nc(C(=O)NCc2ccc(F)cc2)c(O)c1=O)C(=O)N1CCN(CCOCCO)CC1` [Example 75, N-(4-Fluorobenzyl)-3-hydroxy-10-(((4-(2-(2-hydroxyethoxy)ethyl)-1-piperazinyl)(oxo)acetyl)amino)-4-oxo-4,6,7,8,9,10-hexahydro-7,10-ethanopyrimido[1,2-a]azepine-2-carboxamide] was tested, and the IC50 was < 10 nM.
`CN(C)C(=O)C(=O)NC12CCC(CC1)Cn1c2nc(C(=O)NCc2ccc(F)cc2)c(O)c1=O` [Example 57, N′-(2-((4-Fluorobenzyl)carbamoyl)-3-hydroxy-4-oxo-6,7,8,9-tetrahydro-7,10-ethanopyrimido[1,2-a]azepin-10(4H)-yl)-N,N-dimethylethanediamide] was tested, and the IC50 was < 10 nM.
`O=C(NC12CCC(CC1)Cn1c2nc(C(=O)NCc2ccc(F)cc2)c(O)c1=O)C(=O)N1CCOCC1` [Example 60, N-(4-Fluorobenzyl)-3-hydroxy-10-((4-morpholinyl(oxo)acetyl)amino)-4-oxo-4,6,7,8,9,10-hexahydro-7,10-ethanopyrimido[1,2-a]azepine-2-carboxamide] was tested, and the IC50 was < 10 nM.
For `Cc1cc(CNC(=O)c2nc3n(c(=O)c2O)CC2CCC3(NC(=O)c3cc(-c4cnn(C)c4)on3)CC2)ccc1F` [Example 292, 7,10-Ethanopyrimido[1,2-a]azepine-2-carboxamide, N-[(4-fluoro-3-methylphenyl)methyl]-4,6,7,8,9,10-hexahydro-3-hydroxy-10-[[[5-(1-methyl-1H-pyrazol-4-yl)-3-isoxazolyl]carbonyl]amino]-4-oxo-], the IC50 was < 10 nM.
With `O=C(NC12CCC(CC1)Cn1c2nc(C(=O)NCc2ccc(F)cc2)c(O)c1=O)C(=O)N1CCN(C(=O)c2ccco2)CC1` [Example 143, N-(4-Fluorobenzyl)-10-(((4-(2-furanylcarbonyl)-1-piperazinyl)(oxo)acetyl)amino)-3-hydroxy-4-oxo-4,6,7,8,9,10-hexahydro-7,10-ethanopyrimido[1,2-a]azepine-2-carboxamide] the IC50 was < 10 nM.
`CN(C)C(=O)C(=O)NC12CCC(CC1)Cn1c2nc(C(=O)NCc2cccc(-n3cccc3)c2)c(O)c1=O` [Example 126, N′-(3-Hydroxy-4-oxo-2-((3-(1H-pyrrol-1-yl)benzyl)carbamoyl)-6,7,8,9-tetrahydro-7,10-ethanopyrimido[1,2-a]azepin-10(4H)-yl)-N,N-dimethylethanediamide] was tested, and the IC50 was < 10 nM.
In the case of `CS(=O)(=O)N1[C@@H]2C[C@@H]2C[C@H]1C(=O)NC12CCC(CC1)Cn1c2nc(C(=O)NCc2ccc(F)cc2)c(O)c1=O` [Example 294, 7,10-Ethanopyrimido[1,2-a]azepine-2-carboxamide, N-[(4-fluorophenyl)methyl]-4,6,7,8,9,10-hexahydro-3-hydroxy-10-[[[(1R,3S,5R)-2-(methylsulfonyl)-2-azabicyclo[3.1.0]hex-3-yl]carbonyl]amino]-4-oxo-], the IC50 is reported as < 10 nM.
With `CN(C)C(=O)C(=O)NC12CCC(CC1)Cn1c2nc(C(=O)NCC2CC2)c(O)c1=O` [Example 352] the IC50 was > 100 nM.
With `Cc1cc(CNC(=O)c2nc3n(c(=O)c2O)CC[C@@H]2CC[C@@]3(NC(=O)C(=O)N(C)C)C2)ccc1F` [Example 415, Ethanediamide, N′-[(8S,11R)-2-[[[(4-fluoro-3-methylphenyl)methyl]amino]carbonyl-7,8,9,10-tetrahydro-3-hydroxy-4-oxo-8,11-methano-4H-pyrimido[1,2-a]azocin-1](6H)-yl]-N,N-dimethyl-] the IC50 was < 10 nM.
In the case of `Cn1cnc(C(=O)NC23CCC(CC2)Cn2c3nc(C(=O)NCc3ccc(F)cc3)c(O)c2=O)n1` [Example 54, N-(4-Fluorobenzyl)-3-hydroxy-10-(((1-methyl-1H-1,2,4-triazol-3-yl)carbonyl)amino)-4-oxo-4,6,7,8,9,10-hexahydro-7,10-ethanopyrimido[1,2-a]azepine-2-carboxamide], the IC50 is reported as < 10 nM.
With `COC(=O)c1cn(C(C)(C)C(=O)NC23CCC(CC2)Cn2c3nc(C(=O)NCc3ccc(F)c(C)c3)c(O)c2=O)nn1` [Example 284, 1H-1,2,3-Triazole-4-carboxylic acid, 1-[2-[[2-[[[(4-fluoro-3-methylphenyl)methyl]amino]carbonyl]-6,7,8,9-tetrahydro-3-hydroxy-4-oxo-7,10-ethanopyrimido[1,2-a]azepin-10(4H)-yl]amino]-1,1-dimethyl-2-oxoethyl]-, methyl ester] the IC50 was < 10 nM.
